Assay results as given in paper PMC4992173, “Divergent synthesis and identification of the cellular targets of deoxyelephantopins” (Nature Communications, 2016).

Biological target: T1, Zinc finger protein 346 (ZNF346) (Homo sapiens, UniProt Q9UL40)
T1 construct: 1,522 proteins were enriched from MCF7 cells by 10 μM probe 24c; endogenous in cells; host or cells: MCF7
Test: SILAC competitive profiling with probe 24c in MCF7 lysates: ZNF346
Assay type: binding
Details: 1 h, then 10 µM 24c
Text: In our efforts to determine the direct molecular targets of deoxyelephantopin we first performed a gel-based competitive in situ proteomic profiling assay[41] […] While the greater conformational flexibility of probe 24c could potentially lead to more promiscuous target engagement relatively to deoxyelephantopin, it was favoured based on the fact that an alkyne moiety appended to the rigid scaffold of deoxyelephantopin may hinder some of its interactions. MCF7 cells were pretreated with various concentrations of deoxyelephantopin for 4 h, harvested, lysed and the lysates were treated with the fluorogenic probe 24c-Cy3 (10 μM; Supplementary Fig. 10). […] Furthermore, cells were pretreated with 20 μM concentration of deoxyelephantopin or 24c and the proteomic profiles were compared (Fig. 6b, Supplementary Fig. 11). Multiple bands were detected that were equally competed by both DEP and 24c, thus again confirming that 24c can be used as an acceptable clickable analogue of deoxyelephantopin in pulldown assays. Having established the optimal labelling conditions by SDS–PAGE, we next carried out a mass spectrometry-based competitive profiling assay[42] coupled with the method of stable isotope labelling of amino acids in culture (SILAC)[43]. […]
visualization were performed as described above. Images were quantified with ImageJ and kinetics values were calculated using GraphPad Prism (V6.03). […]

T1 sequence (Q9UL40 whole entry): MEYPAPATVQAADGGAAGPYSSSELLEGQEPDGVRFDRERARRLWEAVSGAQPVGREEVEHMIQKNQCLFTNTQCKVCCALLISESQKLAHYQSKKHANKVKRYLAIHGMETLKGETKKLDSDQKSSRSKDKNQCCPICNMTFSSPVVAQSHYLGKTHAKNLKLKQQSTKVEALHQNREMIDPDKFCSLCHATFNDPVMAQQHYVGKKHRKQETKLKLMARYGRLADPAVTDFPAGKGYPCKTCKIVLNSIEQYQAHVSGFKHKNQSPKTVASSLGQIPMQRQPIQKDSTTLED

SMILES: C=C(C)C(=O)O[C@H]1CC2=C[C@@H](C/C(C)=C/[C@H]3OC(=O)C(=C)[C@H]13)OC2=O [deoxyelephantopin]
- SILAC ratio 20 µM Deoxyelephantopin/DMSO with 24c: 0.22
